Data reported in paper PMC9976899, “Identification of a novel 5-aminomethyl-2-thiouridine methyltransferase in tRNA modification” (Nucleic Acids Research, 2023).

What was measured:
atMnmM (atYtqB) = biological target: T1, atMnmM (atYtqB) (Arabidopsis thaliana, UniProt Q8GUP2); experiment: in vitro tRNA methylation, nucleoside HPLC / LC-MS; type: biochemical; conditions: 0.1 mM SAM, 20 uM enzyme, bulk tRNA from B. subtilis delta-ytqB (nm5s2U), pH 7.5, 37 C
T1 construct: gene At1g16445; residues 53-274, chloroplast signal peptide removed, codon-optimized, His-tagged, expressed in E. coli BL21(DE3)
T1 sequence (Q8GUP2 53-274): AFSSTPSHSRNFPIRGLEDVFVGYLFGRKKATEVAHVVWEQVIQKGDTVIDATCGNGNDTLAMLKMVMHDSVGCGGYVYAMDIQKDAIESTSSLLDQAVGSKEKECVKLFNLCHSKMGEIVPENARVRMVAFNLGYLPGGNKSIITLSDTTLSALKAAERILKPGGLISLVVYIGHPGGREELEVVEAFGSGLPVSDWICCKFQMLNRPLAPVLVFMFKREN

osMnmM (osYtqB) = biological target: T2, osMnmM (osYtqB) (Oryza sativa, UniProt Q0DGU2); conditions: 0.1 mM SAM, 20 uM enzyme, bulk tRNA from B. subtilis delta-ytqB (nm5s2U), pH 7.5, 37 C
T2 construct: gene Os05g0511700
T2 sequence (Q0DGU2 48-260): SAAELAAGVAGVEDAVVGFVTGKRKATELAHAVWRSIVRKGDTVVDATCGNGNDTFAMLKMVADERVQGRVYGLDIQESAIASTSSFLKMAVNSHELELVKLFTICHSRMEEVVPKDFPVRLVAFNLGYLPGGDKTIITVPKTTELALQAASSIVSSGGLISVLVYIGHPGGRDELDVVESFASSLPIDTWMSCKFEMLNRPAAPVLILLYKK

## C[S+](CC[C@H](N)C(=O)O)C[C@H]1O[C@@H](n2cnc3c(N)ncnc32)[C@H](O)[C@@H]1O (some centres unmarked) [SAM]
atMnmM (atYtqB)
  in vitro tRNA methylation, nucleoside HPLC / LC-MS: saMnmM, atMnmM, and osMnmM were capable of methylating the hypomodified tRNA substrates
osMnmM (osYtqB)
  in vitro tRNA methylation, nucleoside HPLC / LC-MS: saMnmM, atMnmM, and osMnmM were capable of methylating the hypomodified tRNA substrates
